Source: publication PMC5298233, “Substrate-analogous inhibitors exert antimalarial action by targeting the Plasmodium lactate transporter PfFNT at nanomolar scale” (PLoS Pathogens, 2017)

Target: PfFNT G107S (Plasmodium falciparum, UniProt O77389, G107S)
Experiment: cell-based
Details: for IC50: read-out: IC50 (PfFNT G107S / yeast)

Row | SMILES | IC50 [µM] | relative efficiency in blocking PfFNT G107S (mutant versus wildtype) (compared with BH-296)
1 | COc1ccc(C(=O)/C=C(\O)C(F)(F)C(F)(F)F)cc1 [BH-296] | 2.3 | 
2 | COc1ccc2c(c1)OC(O)(C(F)(F)C(F)(F)F)CC2=O (stereo not shown) [MMV007839] | 21 | 
3 | CC(=O)C=C(O)C(F)(F)C(F)(F)F [Pharmacophore, 5,5,6,6,6-pentafluoro-4-hydroxyhex-3-en-2-one] | 8.1 | four times better relative efficiency than BH-296
